Laboratory results as given in patent US20260008775A1, “AZOLE MODULATORS OF CHOLESTEROL BIOSYNTHESIS AND THEIR USE FOR PROMOTING REMYELINATION” (GENENTECH, INC., priority 2022, published 2026).

Key:
[1] = molecular target: human emopamil binding protein and human 7-dehydrocholesterol reductase (hEBP-DHCR7) (Homo sapiens (Human), UniProt Q15125); assay: hEBP-DHCR7 radioligand binding assay (filter binding, membranes of co-expressing HEK293 cells); settings: competition with [3H] radioligand, 8 doses 0.06 to 5000 nM, Ki calculated from IC50
How it was run: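 Compound, either single dose 1 μM or eight 5-fold dilutions from 0.06 to 5000 nM, competed with a [3H]-labelled ligand added at 25 nM for binding to co-expressing HEK293 membranes. IC50 came from nonlinear regression, with full block and DMSO as controls, then Cheng–Prusoff conversion to Ki.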

[2] = test system: zymostenol accumulation (EBP) in EpiSC-derived OPCs; assay: GC/MS-based sterol profiling, zymostenol accumulation in EpiSC-derived OPCs; format: cell-based, mouse; settings: Mus musculus, 24 h, EpiSC-derived OPCs, 24 hr, 8 doses from 0.15 nM to 333 nM; read-out: Mouse Zymostenol GCMS EC50
How it was run: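 Zymostenol level is expressed relative to that after 24 h with 100 nM positive-control reference, measured by full-scan GC/MS (m/z 458) with cholesterol-d7 internal standard after BSTFA derivatisation. Cells were EpiSC-derived OPCs, 100,000/well in N2B27 without growth factors, treated 24 h, from two or more independent platings.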

EpiSC-derived OPCs = assay: In vitro phenotypic screening of OPCs, MBP high-content imaging (percentage of oligodendrocytes); format: cell-based, mouse; settings: Mus musculus, 72 h, 3 days, MBP stain, dose-response 0.5 nM to 1000 nM; read-out: OPC EC50
Description: To assess effects of treatments on OPCs, all treatments were assayed in two or more independent platings of epiblast stem cell-derived OPCs (EpiSC). EpiSC-derived OPCs were obtained using in vitro differentiation protocols and culture conditions described previously (Najm et al, 2011, Nature Methods). OPCs were expanded and frozen down in aliquots. OPCs were thawed into growth conditions for at least one passage before use in further assays.
EpiSC-derived OPCs were grown and expanded in poly-L-ornithine (PO) and laminin-coated flasks in N2B27 media (DMEM/F12 (Gibco), N2-MAX (R&D Systems), B-27 (ThermoFisher), and GlutaMax (Gibco)) supplemented with FGF2 (10 μg/mL, R&D systems, 233-FB-025) and PDGF-AA (10 μg/mL, R&D systems, 233-AA-050) before harvesting for experiments. The cells were seeded onto poly-L-ornithine or poly-D-lysine coated CellCarrier Ultra plates (PerkinElmer) coated with laminin (Sigma, L2020) at a density of 150,000/cm^2 in N2B27 media without growth factors. For dose-response testing, a 1000× compound stock in dimethyl sulphoxide (DMSO) was added to assay plates, resulting in 8-point dose curves with final concentrations between 1000 nM and 0.5 nM. Positive controls and DMSO vehicle controls were included in each assay plate. Cells were incubated under standard conditions (37° C., 5% CO2) for 3 days and fixed with 4% paraformaldehyde (PFA) in phosphate buffered saline (PBS) for 20 min. Fixed plates were washed with PBS, permeabilized with 0.1% Triton X-100, and blocked with 10% donkey serum (v/v) in PBS for 40 min. Then, cells were labelled with MBP antibodies (Abcam, ab7349; 1:200) for 2 h at room temperature, washed with PBS, and stained with Alexa Fluor conjugated secondary antibodies (1:500) for 45 min. Nuclei were visualized by DAPI staining (Sigma; […]), followed by further PBS washes.
Cells and cell culture plates were imaged on the Operetta High Content Imaging and Analysis system (PerkinElmer). Analysis (PerkinElmer Harmony and Columbus software) began by identifying intact nuclei stained by DAPI. The peri-nuclear region of each cell was then cross-referenced with the mature myelin protein (MBP) stain to identify oligodendrocyte nuclei, and from this the percentage of oligodendrocytes was calculated. EC50 values were calculated using The Levenberg-Marquardt algorithm to fit a Hill equation to dose-response data (0.5 nM to 1000 nM).

Chain of human emopamil binding protein and human 7-dehydrocholesterol reductase (hEBP-DHCR7) (Q15125 whole entry): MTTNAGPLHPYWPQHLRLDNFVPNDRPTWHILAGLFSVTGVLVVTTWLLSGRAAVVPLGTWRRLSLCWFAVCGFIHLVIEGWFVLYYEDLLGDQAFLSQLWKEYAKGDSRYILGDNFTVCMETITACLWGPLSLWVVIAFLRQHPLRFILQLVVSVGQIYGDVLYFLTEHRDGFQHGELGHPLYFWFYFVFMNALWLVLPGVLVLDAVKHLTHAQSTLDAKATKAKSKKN

Row | Compound | Ki [1] | EC50 [2] | EC50 (EpiSC-derived OPCs)
1 | CC(C)n1nc(-c2cncc(C(F)(F)F)c2)cc1[C@H]1[C@@H]2C[C@H](N3CCOC[C@@H]3C)C[C@@H]21 (single isomer, unassigned) [45*] | 53 nM | 11 nM | 48 nM
2 | CC(C)n1nc(-c2cncc(C(F)(F)F)c2)cc1[C@H]1[C@@H]2C[C@H](N3CCOC[C@H]3C)C[C@@H]21 (single isomer, unassigned) [46*] | 34.8 nM | 1.42 nM | 0.907 nM
3 | CC(C)n1nc(-c2cccc(C(F)(F)F)c2)nc1[C@H]1[C@@H]2C[C@@H](N3CCOC[C@H]3C)C[C@@H]21 (single isomer, unassigned) [71*] | 29 nM | 205 nM | 749 nM
4 | COCCN1CCN([C@H]2CC[C@@H](c3cc(-c4ccc(C(F)(F)F)nc4)nn3C(C)C)C2)CC1 (single isomer, unassigned) [91*] | 12.8 nM | 11.3 nM | 67.6 nM
5 | COCCN1CCN([C@@H]2CC[C@H](c3cc(-c4ccc(C(F)(F)F)nc4)nn3C(C)C)C2)CC1 (single isomer, unassigned) [93*] | 19.7 nM | 22.5 nM | 125 nM
6 | CC[C@@H]1CN([C@@H]2CC[C@H](c3nc(-c4cnc(C(F)(F)F)nc4)nn3C(C)C)C2)CCO1 (single isomer, unassigned) [Compound 109*] | 164 nM | 44 nM | 285 nM
7 | CC(C)n1nc(-c2ccc(C(F)(F)F)c(F)c2)nc1[C@H]1CC[C@@H](N2CCOCC2)C1 (single isomer, unassigned) [Compound 111*] | 45 nM | 1.64 nM | 6.15 nM
8 | CC(C)n1nc(-c2ccc(C(F)(F)F)c(F)c2)nc1[C@H]1CC[C@H](N2CCOCC2)C1 (single isomer, unassigned) [Compound 112*] | 90.8 nM | 23.8 nM | 196 nM
9 | CC(C)n1nc(-c2ccc(C(F)(F)F)c(F)c2)nc1[C@@H]1CC[C@H](N2CCOCC2)C1 (single isomer, unassigned) [Compound 113*] | 9.73 nM | 1.85 nM | 4.81 nM
10 | CC(C)n1nc([C@H]2CC[C@H](C(F)(F)F)CC2)nc1[C@H]1[C@@H]2C[C@@H](N3CCOC[C@H]3C)C[C@@H]21 (single isomer, unassigned) [Compound 165*] | 40.4 nM | 4.55 nM | 35 nM
11 | CC(C)n1nc(-c2ccc(C(F)(F)F)nc2)nc1[C@H]1CC[C@@H](N2CCO[C@H](CF)C2)C1 (single isomer, unassigned) [Compound 169] | 30.2 nM | 7.6 nM | 6.2 nM
12 | Cc1ccccc1-c1cc([C@H]2[C@@H]3C[C@@H](N4CCCOCC4)C[C@@H]32)n(C(C)C)n1 (single isomer, unassigned) [Compound 198*] | 20.2 nM | 41.3 nM | 105 nM
13 | CC(C)n1nc(-c2cccc(OC(F)F)c2)cc1[C@H]1[C@@H]2C[C@H](N3CCCOCC3)C[C@@H]21 (single isomer, unassigned) [Compound 199*] | 8.2 nM | 2.06 nM | 4.01 nM
14 | CC(C)n1nc(-c2cccc(OC(F)F)c2)cc1[C@H]1[C@@H]2C[C@@H](N3CCCOCC3)C[C@@H]21 (single isomer, unassigned) [Compound 200*] | 11.6 nM | 13.7 nM | 36.7 nM
15 | CC(C)n1nc(-c2ccc(OC(F)F)cc2)cc1[C@H]1[C@@H]2C[C@H](N3CCCOCC3)C[C@@H]21 (single isomer, unassigned) [Compound 201*] | 11 nM | 8.23 nM | 24.5 nM
16 | CC(C)n1nc(-c2cccc(C(F)(F)F)n2)nc1[C@@H]1CCC(N2CCOCC2)C1 (stereo in doubt) [26*, 4-((1S,3R)-3-(1-isopropyl-3-(6-(trifluoromethyl)pyridin-2-yl)-1H-1,2,4-triazol-5-yl)cyclopentyl)morpholine] | 22.6 nM | 11.7 nM | 85 nM

Other lines, results leading:

Row | Ki [1] | EC50 [2] | EC50 (EpiSC-derived OPCs) | Compound
17 | 26.2 nM | 25.1 nM | 138 nM | CC(C)n1nc(-c2cncc(C(F)(F)F)c2)cc1[C@H]1CC[C@H](N2CCOCC2)C1 (single isomer, unassigned) [58*]
18 | 19.2 nM | 5.52 nM | 36.2 nM | CC(C)n1nc(-c2cncc(C(F)(F)F)c2)cc1[C@H]1CC[C@@H](N2CCOCC2)C1 (single isomer, unassigned) [60*]
19 | 69.1 nM | 21.9 nM | 102 nM | CC(C)n1nc(-c2cncc(C(F)(F)F)c2)cc1[C@@H]1CC[C@H](N2CCOCC2)C1 (single isomer, unassigned) [61*]
20 | 13.1 nM | 1.73 nM | 18.3 nM | CC(C)n1nc(-c2cncc(C(F)(F)F)c2)cc1[C@@H]1CC[C@H](N2CCCOCC2)C1 (single isomer, unassigned) [62*]
21 | 14.4 nM | 3.49 nM | 21.8 nM | CC(C)n1nc(-c2cncc(C(F)(F)F)c2)cc1[C@H]1CC[C@H](N2CCCOCC2)C1 (single isomer, unassigned) [63*]
22 | 28.2 nM | 16.2 nM | 103 nM | CC(C)n1nc(-c2cncc(C(F)(F)F)c2)cc1[C@@H]1CC[C@@H](N2CCCOCC2)C1 (single isomer, unassigned) [65*]
23 | 8.76 nM | 6.43 nM | 0.65 nM | CC(C)n1nc(-c2cccc(C(F)(F)F)c2)nc1[C@H]1[C@@H]2C[C@H](N3CCOC[C@H]3C)C[C@@H]21 (single isomer, unassigned) [70*]
24 | 26.2 nM | 16.4 nM | 48.9 nM | CC(C)n1nc(-c2ccc(C(F)(F)F)nc2)cc1[C@@H]1CC[C@H](N2CCN(CCO)CC2)C1 (single isomer, unassigned) [87*]
25 | 14.8 nM | 2.48 nM | 13.9 nM | CC[C@H]1CN([C@@H]2CC[C@H](c3nc(-c4cnc(C(F)(F)F)nc4)nn3C(C)C)C2)CCO1 (single isomer, unassigned) [Compound 110*]
26 | 14.7 nM | 8 nM | 25.7 nM | CC(C)n1nc(-c2ccc(C(F)(F)F)c(F)c2)nc1[C@@H]1CC[C@@H](N2CCOCC2)C1 (single isomer, unassigned) [Compound 114*]
27 | 32.2 nM | 11.5 nM | 93.2 nM | CC(C)n1nc(-c2cncc(C(F)(F)F)c2)nc1[C@H]1CC[C@@H](N2CCOCC2)C1 (single isomer, unassigned) [Compound 118*]
28 | 17.1 nM | 21.2 nM | 274 nM | CC(C)n1nc(-c2cnc(C(F)(F)F)nc2)cc1[C@H]1CC[C@@H](N2CCO[C@H](CF)C2)C1 (single isomer, unassigned) [Compound 133*]
29 | 41 nM | 30.5 nM | 108 nM | CC(C)n1nc([C@H]2CC[C@@H](C(F)(F)F)CC2)nc1[C@H]1[C@@H]2C[C@H](N3CCOC[C@H]3C)C[C@@H]21 (single isomer, unassigned) [Compound 166*]
30 | 25.1 nM | 3.58 nM | 29 nM | CC(C)n1nc([C@H]2CC[C@@H](C(F)(F)F)CC2)nc1[C@H]1[C@@H]2C[C@@H](N3CCOC[C@H]3C)C[C@@H]21 (single isomer, unassigned) [Compound 167*]
31 | 9.87 nM | 5.46 nM | 10.1 nM | Cc1ccccc1-c1cc([C@H]2[C@@H]3C[C@H](N4CCCOCC4)C[C@@H]32)n(C(C)C)n1 (single isomer, unassigned) [Compound 197*]
